Laboratory results: patent US20110172200A1, “USE OF INHIBITOR OF BETA-LACTAMASES AND ITS COMBINATION WITH BETA-LACTAM ANTIBIOTICS” (priority 2008, published 2011)
Where “and” joins values, the source holds several entries; their conditions need not be identical. Equal values may be shown once. Read-outs that look alike come from different tables or passages of the source. Blank lines part the entries; values can stand above or below the molecule they belong to.

Tests used:
E. faecalis ATCC 29212 = assay: Broth microdilution susceptibility assay (MIC), strain S5; format: cell-based; conditions: duplicate, CAMHB, 35° C.; for MIC S5: 24 h; for MIC: Enterococcus faecalis, ATCC29212, 24 h
Method: (§1) Representative inhibitor of beta-lactamases of formula (I) was evaluated against the bacterial strains producing serine-based class A beta-lactamases including CTX-M, TEM-type, SHV-type extended spectrum beta-lactamases (ESBL) and class C betalactamases (AmpC) as noted in Table 2.
(§2) Bacterial suspensions with a turbidity equivalent to that of a 0.5 McFarland standard were prepared by suspending a tiny portion of one colony from blood agar plates in 2 mL of sterile saline. Suspensions were further diluted with cation adjusted Mueller Hinton Broth (CAMHB) to obtain a final inoculum of 5×10^5 CFU/mL.
(§3) The in vitro activities of the antibiotics were determined by the broth microdilution method as recommended by CLSI guidelines.
(§4) MIC experiments were performed in duplicate in 96-well microtiter plates using CAMHB. Serial twofold dilutions of each antibiotic either alone or in combination with constant concentration ratio of LK-176 (2:1) and (10:1) were prepared in CAMHB. The bacterial suspension with final inoculum […] was transferred to the test medium containing the antibacterial substances. In each well of microtiter plate 50 μL of bacterial inoculum and 50 μL of antibiotic dilutions were combined. Each plate included 4 wells with no bacterial inoculum (negative control) and 4 wells with no test compound and no antibiotic (positive control). The plates were incubated at 35° C. for 24 h. Purity check and colony counts on each inoculum suspension was performed to ensure that the final inoculum concentration routinely obtained closely approximates 5×10^5 CFU/mL.

E. cloacae B274 (AmpC) = assay: Broth microdilution susceptibility assay (MIC), strain S1; format: cell-based; conditions: CAMHB, 35° C., 24 h; for MIC: Enterobacter cloacae
Method: as §1, §2, §3, §4

E. cloacae B275 (AmpC) = assay: Broth microdilution susceptibility assay (MIC), strain S2; format: cell-based; conditions: duplicate, CAMHB, 35° C., 24 h
Method: as §1, §2, §3, §4

E. cloacae 4013 = assay: Broth microdilution susceptibility assay (MIC), strain S3; format: cell-based; conditions: duplicate, CAMHB, 35° C.; for MIC S3: 24 h; for MIC: Enterobacter cloacae, 4013, 24 h
Method: as §1, §2, §3, §4

[1] = test system: E. caerogenes ATCC 29751 (class II); assay: Broth microdilution susceptibility assay (MIC), strain S4; format: cell-based; conditions: duplicate, CAMHB, 35° C., 24 h
Method: as §1, §2, §3, §4

K. pneumoniae DSA 1461 = assay: Broth microdilution susceptibility assay (MIC), strain S6; format: cell-based; conditions: Table 2 lower part, duplicate, CAMHB, 35° C., 24 h
Method: as §1, §2, §3, §4

[2] = test system: K. pneumoniae ATCC 700603 (SHV-18); assay: Broth microdilution susceptibility assay (MIC), strain S7; format: cell-based; conditions: CAMHB, 35° C.; for MIC S7: 24 h; for MIC: Klebsiella pneumoniae, ATCC700603, 24 h
Method: as §1, §2, §3, §4

C. freundii B271 (SHV-5) = assay: Broth microdilution susceptibility assay (MIC), strain S8; format: cell-based; conditions: CAMHB, 35° C., 24 h; for MIC: Citrobacter freundii
Method: as §1, §2, §3, §4

C. freundii B318 (CTX-M) = assay: Broth microdilution susceptibility assay (MIC), strain S9; format: cell-based
Method: as §1, §2, §3, §4

[3] = target: class A beta-lactamase TEM-1 (Escherichia coli, UniProt P62593); assay: IC50 determination with nitrocefin as reporter substrate, TEM-1; format: biochemical, E. coli; conditions: 30 min pre-incubation at 37° C., phosphate buffer pH 7.0, nitrocefin
class A beta-lactamase TEM-1, sequence (P62593 24-286 limits assumed): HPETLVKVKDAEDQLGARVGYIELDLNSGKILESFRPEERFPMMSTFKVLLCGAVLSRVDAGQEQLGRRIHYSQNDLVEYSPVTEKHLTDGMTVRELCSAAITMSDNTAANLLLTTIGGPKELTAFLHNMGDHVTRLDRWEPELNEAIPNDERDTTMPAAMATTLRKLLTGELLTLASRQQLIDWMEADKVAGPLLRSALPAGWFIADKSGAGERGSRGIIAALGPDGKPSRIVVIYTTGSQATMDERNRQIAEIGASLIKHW
Method: (§5) The IC50 value represents the concentration of inhibitor required to effect a 50% loss of activity of free enzyme. A standard test for the production of beta-lactamase involves use of the chromogenic cephalosporin, nitrocefin.
(§6) Homogeneously purified class A beta-lactamases TEM-1 and SHV-1 from E. coli and class C enzyme P99 from Enterobacter cloaca were employed in the assay.
(§7) All the enzymes and compounds were dissolved in 50 mM phosphate buffer pH 7.0 and all further dilutions were done with the same buffer solution. Enzyme and compound dilutions were pre-incubated for 30 min at 37° C. and in a final volume of 500 μl. Than 10 μl of 5 mM nitrocefin (reporter substrate) was added to the solution and the absorbance at 482 nm was measured during 2 to 5 minutes. The initial rate was calculated for all the different solutions. The […] values were determined as the inhibitor concentration that gave an initial hydrolysis rate of nitrocefin equal to 50% of the hydrolysis rate of nitrocefin in absence of inhibitor.
(§8) Representative compounds of formula (I) were evaluated as inhibitors of beta-lactamases of TEM-1 and SHV-1 (class A, penicillinase) from E. coli and P-99 (class C, cephalosporinase) from Enterobacter cloacae, by relative IC50 analysis using a procedure similar to that described above.

[4] = target: class A beta-lactamase SHV-1 (Escherichia coli, UniProt P0AD63); assay: IC50 determination with nitrocefin as reporter substrate, SHV-1; format: biochemical, E. coli
class A beta-lactamase SHV-1, sequence (P0AD63 22-286): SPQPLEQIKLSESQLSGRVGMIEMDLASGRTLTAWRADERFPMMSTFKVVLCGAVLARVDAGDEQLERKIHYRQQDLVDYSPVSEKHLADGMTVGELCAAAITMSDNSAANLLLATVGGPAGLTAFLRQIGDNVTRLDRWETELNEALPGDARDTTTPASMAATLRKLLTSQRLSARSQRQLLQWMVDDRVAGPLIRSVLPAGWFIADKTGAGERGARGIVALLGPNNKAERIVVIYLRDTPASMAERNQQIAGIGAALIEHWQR
Method: as §5, §6, §7, §8

[5] = target: class C beta-lactamase P99 (AmpC) (Enterobacter cloacae, UniProt P05364); assay: IC50 determination with nitrocefin as reporter substrate, P99; format: biochemical
class C beta-lactamase P99 (AmpC), sequence (P05364 21-381): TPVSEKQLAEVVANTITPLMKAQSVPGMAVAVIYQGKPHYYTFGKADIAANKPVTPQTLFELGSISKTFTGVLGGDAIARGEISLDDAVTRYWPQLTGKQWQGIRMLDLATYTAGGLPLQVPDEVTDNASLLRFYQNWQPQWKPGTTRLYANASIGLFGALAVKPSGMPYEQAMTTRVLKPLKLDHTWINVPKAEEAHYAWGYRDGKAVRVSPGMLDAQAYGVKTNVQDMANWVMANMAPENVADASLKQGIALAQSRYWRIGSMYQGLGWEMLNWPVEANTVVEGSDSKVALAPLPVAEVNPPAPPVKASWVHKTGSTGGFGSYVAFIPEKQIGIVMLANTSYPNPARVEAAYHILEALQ
Method: as §5, §6, §7, §8

strains S1-S9 = assay: Broth microdilution susceptibility assay (MIC), all strains; format: cell-based; conditions: strains deemed as resistant to LK-176 alone
Method: as §1, §2, §3
as §4, with “The plates were incubated at 35° C. for 24 h. Purity check and colony counts on each inoculum suspension was performed to ensure that the final inoculum concentration routinely obtained closely approximates 5×10^5 CFU/mL.” left out

AmpC = conditions: cited from earlier work
[6] = single and repeated doses, i.v. and oral, healthy subjects; cited from earlier work
[7] = Table 2 upper part, duplicate (two lines per substance)
[8] = Table 2 lower part, duplicate, CAMHB, 35° C., 24 h

- MIC S5 (E. faecalis ATCC 29212; Table 2 upper part): 32 µg/mL and 16 µg/mL
SMILES: CO/N=C(\C(=O)N[C@@H]1C(=O)N2C(C(=O)[O-])=C(C[N+]3(C)CCCC3)CS[C@H]12)c1csc(N)n1 [Cefepime (EPI), cefepime]

SMILES: CO/N=C(\C(=O)N[C@@H]1C(=O)N2C(C(=O)O)=C(COC(C)=O)CS[C@H]12)c1csc(N)n1 [Cefotaxime (OTA), cefotaxime]
- MIC S1 (E. cloacae B274 (AmpC); [7]): 128 µg/mL
- MIC S2 (E. cloacae B275 (AmpC); Table 2 upper part): 128 µg/mL
- MIC S3 (E. cloacae 4013; Table 2 upper part): 64 µg/mL
- MIC S4 ([1]; Table 2 upper part): 8 µg/mL
- MIC S5 (E. faecalis ATCC 29212; Table 2 upper part): 16 µg/mL

- MIC S1 (E. cloacae B274 (AmpC); [7]): >128 µg/mL
- MIC S2 (E. cloacae B275 (AmpC); Table 2 upper part): >128 µg/mL
- MIC S3 (E. cloacae 4013; Table 2 upper part): 128 µg/mL
- MIC S4 ([1]; Table 2 upper part): 16 µg/mL
- MIC S5 (E. faecalis ATCC 29212; Table 2 upper part): 16 µg/mL
SMILES: CC(C)(O/N=C(\C(=O)N[C@@H]1C(=O)N2C(C(=O)[O-])=C(C[n+]3ccccc3)CS[C@H]12)c1csc(N)n1)C(=O)O [Ceftazidime (TAZ), ceftazidime]

- MIC S1 (E. cloacae B274 (AmpC); Table 2 lower part, duplicate): 128 µg/mL
- MIC S2 (E. cloacae B275 (AmpC); Table 2 lower part): 64 µg/mL
- MIC S3 (E. cloacae 4013; Table 2 lower part): 32 µg/mL
- MIC S4 ([1]; Table 2 lower part): 8 µg/mL
- MIC S5 (E. faecalis ATCC 29212; Table 2 lower part): >128 µg/mL
- MIC S6 (K. pneumoniae DSA 1461): >128 µg/mL and 128 µg/mL
- MIC S7 ([2]; Table 2 lower part, duplicate): 8 µg/mL
- MIC S8 (C. freundii B271 (SHV-5); Table 2 lower part, duplicate): 32 µg/mL
SMILES: CO/N=C(\C(=O)N[C@@H]1C(=O)N2C(C(=O)O)=C(CSc3nc(=O)c(O)nn3C)CS[C@H]12)c1csc(N)n1 [Ceftriaxone (TRI), ceftriaxone]

- MIC S1 (E. cloacae B274 (AmpC); Table 2 lower part, duplicate): >128 µg/mL
- MIC S2 (E. cloacae B275 (AmpC); Table 2 lower part): >128 µg/mL
- MIC S3 (E. cloacae 4013; Table 2 lower part): >128 µg/mL
- MIC S4 ([1]; Table 2 lower part): 128 µg/mL
- MIC S5 (E. faecalis ATCC 29212; Table 2 lower part): 64 µg/mL and 32 µg/mL
- MIC S6 (K. pneumoniae DSA 1461): >128 µg/mL
- MIC S7 ([2]; Table 2 lower part, duplicate): 64 µg/mL and 32 µg/mL
- MIC S8 (C. freundii B271 (SHV-5); Table 2 lower part, duplicate): 128 µg/mL
- MIC S9 (C. freundii B318 (CTX-M)): 128 µg/mL
SMILES: CO/N=C(\C(=O)N[C@@H]1C(=O)N2C(C(=O)O)=C(COC(N)=O)CS[C@H]12)c1ccco1 [Cefuroxime (URO), cefuroxime]

SMILES: CO[C@H]1CCC[C@H]2C1=C(C(=O)O)N1C(=O)C(C(C)O)[C@@H]21 (stereo partly drawn) [LK-176, (4S,8S,9R)-4-methoxy-10-(1-Hydroxyethyl)-11-oxo-1-azatricyclo-[7.2.0.0 (3,8)]undec-2-ene-2-carboxylic acid]
- IC50 [3]: 15 nM
- IC50 [4]: 200 nM
- IC50 [5]: 0.15 nM
- MIC (E. cloacae B274 (AmpC); Table 2 lower part, duplicate): 32 µg/mL
- MIC (E. cloacae B274 (AmpC); [7]): 32 µg/mL
- MIC S1 (E. cloacae B274 (AmpC); Table 2 lower part, duplicate): 16 µg/mL
- MIC (E. cloacae B275 (AmpC); Enterobacter cloacae, Table 2 lower part): 64 µg/mL
- MIC (E. cloacae 4013; Table 2 lower part): 64 µg/mL
- MIC (E. cloacae 4013; Table 2 upper part): 64 µg/mL
- MIC S3 (E. cloacae 4013; Table 2 lower part): 32 µg/mL
- MIC ([1]; Table 2 lower part): 16 µg/mL
- MIC ([1]; Table 2 upper part): 32 µg/mL
- MIC (E. faecalis ATCC 29212; Table 2 lower part): 64 µg/mL
- MIC (E. faecalis ATCC 29212; Table 2 upper part): 32 µg/mL
- MIC (K. pneumoniae DSA 1461; Klebsiella pneumoniae, DSA1461): 16 µg/mL
- MIC ([2]; Table 2 lower part, duplicate): > 128 µg/mL
- MIC ([2]; Table 2 upper part, column 6, duplicate): 16 µg/mL
- MIC S7 ([2]; Table 2 lower part, duplicate): 128 µg/mL
- MIC (C. freundii B271 (SHV-5); Table 2 lower part, duplicate): 64 µg/mL
- MIC (C. freundii B271 (SHV-5); Table 2 upper part, column 7, duplicate): 128 µg/mL
- MIC S9 (C. freundii B318 (CTX-M); [8]): 32 µg/mL
- MIC values of LK-176 alone, all strains S1-S9 (strains S1-S9): above 16 mg/L

- MIC S1 (E. cloacae B274 (AmpC); Table 2 lower part, duplicate): >128 µg/mL
- MIC S2 (E. cloacae B275 (AmpC); Table 2 lower part): >128 µg/mL
- MIC S3 (E. cloacae 4013; Table 2 lower part): >128 µg/mL
- MIC S4 ([1]; Table 2 lower part): 32 µg/mL
- MIC S5 (E. faecalis ATCC 29212; Table 2 lower part): 16 µg/mL
- MIC S6 (K. pneumoniae DSA 1461): >128 µg/mL
- MIC S7 ([2]; Table 2 lower part, duplicate): >128 µg/mL
- MIC S8 (C. freundii B271 (SHV-5); Table 2 lower part, duplicate): >128 µg/mL
- MIC S9 (C. freundii B318 (CTX-M); [8]): 128 µg/mL
SMILES: CCN1CCN(C(=O)N[C@@H](C(=O)N[C@@H]2C(=O)N3[C@@H]2SC(C)(C)[C@@H]3C(=O)O)c2ccccc2)C(=O)C1=O [Piperacillin (PIP), piperacillin]

SMILES: C=CC1=C(C(=O)O)N2C(=O)[C@@H](NC(=O)/C(=N\OCC(=O)O)c3csc(N)n3)[C@H]2SC1 [cefixime]
- kcat values of AmpC (AmpC): 10 s⁻¹

SMILES: CO[C@H]1CCC[C@H]2C1=C(C(=O)O)N1C(=O)[C@H]([C@@H](C)O)[C@@H]21 [sanfetrinem]
- kcat values of AmpC (AmpC): 0.00033 s⁻¹
- Safety and tolerability [6]: good tolerability
